Source: PubChem BioAssay (NCI)
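Dose response: 5 concentrations. Exposure: 48 h. Format: 96-well plates. Endpoint: linear interpolation; highest concentration if not reached. TGI denotes the concentration required for complete inhibition of growth.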

What was measured:
Assay in all cases: NCI-60 cell line screen, 48 h
[1] = tested on: 786-0 renal
[2] = tested on: A498 renal
[3] = tested on: A549 NSCLC
[4] = tested on: ACHN renal
[5] = tested on: BT-549 breast
[6] = tested on: CAKI-1 renal
[7] = tested on: CCRF-CEM leukemia
[8] = tested on: COLO 205 colon
[9] = tested on: DU-145 prostate
[10] = tested on: EKVX NSCLC
[11] = tested on: HCC-2998 colon
[12] = tested on: HCT-116 colon
[13] = tested on: HCT-15 colon
[14] = tested on: HL-60(TB) leukemia
[15] = tested on: HOP-62 NSCLC
[16] = tested on: HS 578T breast
[17] = tested on: HT29 colon
[18] = tested on: IGROV1 ovarian
[19] = tested on: K-562 leukemia
[20] = tested on: KM12 colon
[21] = tested on: M14 melanoma
[22] = tested on: MALME-3M melanoma
[23] = tested on: MCF7 breast
[24] = tested on: MDA-MB-231 breast
[25] = tested on: MDA-MB-435
[26] = tested on: MDA-N
[27] = tested on: MOLT-4 leukemia
[28] = tested on: NCI-H226 lung
[29] = tested on: NCI-H23 lung
[30] = tested on: NCI-H460 lung
[31] = tested on: NCI-H522 lung
[32] = tested on: NCI/ADR-RES ovarian
[33] = tested on: OVCAR-3 ovarian
[34] = tested on: OVCAR-4 ovarian
[35] = tested on: OVCAR-5 ovarian
[36] = tested on: OVCAR-8 ovarian
[37] = tested on: PC-3 prostate
[38] = tested on: RPMI-8226 leukemia
[39] = tested on: RXF 393 renal
[40] = tested on: SF-268 CNS
[41] = tested on: SF-295 CNS
[42] = tested on: SF-539 CNS
[43] = tested on: SK-MEL-2 melanoma
[44] = tested on: SK-MEL-5 melanoma
[45] = tested on: SK-OV-3 ovarian
[46] = tested on: SN12C renal
[47] = tested on: SNB-19 CNS
[48] = tested on: SNB-75 CNS
[49] = tested on: SR leukemia
[50] = tested on: T-47D breast
[51] = tested on: TK-10 renal
[52] = tested on: U251 CNS
[53] = tested on: UACC-257 melanoma
[54] = tested on: UACC-62 melanoma
[55] = tested on: UO-31 renal
[56] = tested on: HOP-92 NSCLC
[57] = tested on: LOX IMVI melanoma
[58] = tested on: SK-MEL-28 melanoma
[59] = tested on: SW-620 colon

Question: For `Cc1cc(N(CCC#N)CCC#N)ccc1/C(N=Nc1ccc([N+](=O)[O-])cc1)=N\NC(=O)c1ccccc1`, which TGI [1] is on record?
Answer: > 100 µM

Question: What about the TGI [2] of the same compound?
Answer: 74 µM

Question: What about the TGI [3] of the same compound?
Answer: > 100 µM

Question: What about the TGI [4] of the same compound?
Answer: > 100 µM

Question: What about the TGI [5] of the same compound?
Answer: > 100 µM

Question: And the TGI [6]?
Answer: > 100 µM

Question: What about the TGI [7] of the same compound?
Answer: > 100 µM

Question: And the TGI [8]?
Answer: > 100 µM

Question: What about the TGI [9] of the same compound?
Answer: > 100 µM

Question: And the TGI [10]?
Answer: > 100 µM

Question: And the TGI [11]?
Answer: > 100 µM

Question: And the TGI [12]?
Answer: > 100 µM

Question: And the TGI [13]?
Answer: > 100 µM

Question: And the TGI [14]?
Answer: > 100 µM

Question: What about the TGI [15] of the same compound?
Answer: > 100 µM

Question: What about the TGI [16] of the same compound?
Answer: 64.5 µM

Question: What about the TGI [17] of the same compound?
Answer: 71.4 µM

Question: And the TGI [18]?
Answer: > 100 µM

Question: And the TGI [19]?
Answer: > 100 µM

Question: What about the TGI [20] of the same compound?
Answer: > 100 µM

Question: And the TGI [21]?
Answer: > 100 µM

Question: And the TGI [22]?
Answer: > 100 µM

Question: What about the TGI [23] of the same compound?
Answer: > 100 µM

Question: And the TGI [24]?
Answer: > 100 µM

Question: What about the TGI [25] of the same compound?
Answer: > 100 µM

Question: What about the TGI [26] of the same compound?
Answer: > 100 µM

Question: And the TGI [27]?
Answer: > 100 µM

Question: And the TGI [28]?
Answer: > 100 µM

Question: What about the TGI [29] of the same compound?
Answer: > 100 µM

Question: And the TGI [30]?
Answer: > 100 µM

Question: What about the TGI [31] of the same compound?
Answer: 44.7 µM

Question: And the TGI [32]?
Answer: > 100 µM

Question: What about the TGI [33] of the same compound?
Answer: > 100 µM

Question: What about the TGI [34] of the same compound?
Answer: > 100 µM

Question: And the TGI [35]?
Answer: > 100 µM

Question: What about the TGI [36] of the same compound?
Answer: > 100 µM

Question: What about the TGI [37] of the same compound?
Answer: > 100 µM

Question: What about the TGI [38] of the same compound?
Answer: > 100 µM

Question: What about the TGI [39] of the same compound?
Answer: > 100 µM

Question: And the TGI [40]?
Answer: > 100 µM

Question: What about the TGI [41] of the same compound?
Answer: > 100 µM

Question: And the TGI [42]?
Answer: 92.9 µM

Question: What about the TGI [43] of the same compound?
Answer: > 100 µM

Question: And the TGI [44]?
Answer: > 100 µM

Question: And the TGI [45]?
Answer: > 100 µM

Question: And the TGI [46]?
Answer: > 100 µM

Question: And the TGI [47]?
Answer: > 100 µM

Question: And the TGI [48]?
Answer: > 100 µM

Question: And the TGI [49]?
Answer: > 100 µM

Question: What about the TGI [50] of the same compound?
Answer: 97.1 µM

Question: And the TGI [51]?
Answer: > 100 µM

Question: What about the TGI [52] of the same compound?
Answer: > 100 µM

Question: And the TGI [53]?
Answer: > 100 µM

Question: What about the TGI [54] of the same compound?
Answer: > 100 µM

Question: What about the TGI [55] of the same compound?
Answer: > 100 µM

Question: For `O=C(C1OC1c1cccc([N+](=O)[O-])c1)C12CC3CC(CC(C3)C1)C2` (stereo not drawn), which TGI [1] is on record?
Answer: 7.1 µM

Question: What about the TGI [2] of the same compound?
Answer: 14.2 µM

Question: And the TGI [3]?
Answer: 26.6 µM

Question: And the TGI [4]?
Answer: 23 µM

Question: What about the TGI [5] of the same compound?
Answer: 12.6 µM

Question: And the TGI [6]?
Answer: 24.5 µM

Question: What about the TGI [7] of the same compound?
Answer: 13.1 µM

Question: What about the TGI [8] of the same compound?
Answer: 23.4 µM

Question: And the TGI [9]?
Answer: 26.8 µM

Question: And the TGI [10]?
Answer: 27 µM

Question: What about the TGI [11] of the same compound?
Answer: 14.5 µM

Question: What about the TGI [12] of the same compound?
Answer: 4.69 µM

Question: What about the TGI [13] of the same compound?
Answer: 14.7 µM

Question: What about the TGI [14] of the same compound?
Answer: 15.8 µM

Question: And the TGI [15]?
Answer: 24.3 µM

Question: And the TGI [56]?
Answer: 25.3 µM

Question: And the TGI [16]?
Answer: 14.3 µM

Question: And the TGI [17]?
Answer: 13 µM

Question: What about the TGI [18] of the same compound?
Answer: 20.2 µM

Question: What about the TGI [19] of the same compound?
Answer: 13.2 µM

Question: What about the TGI [20] of the same compound?
Answer: 13.9 µM

Question: What about the TGI [57] of the same compound?
Answer: 3.84 µM

Question: And the TGI [21]?
Answer: 22.8 µM

Question: What about the TGI [22] of the same compound?
Answer: 27.9 µM

Question: What about the TGI [23] of the same compound?
Answer: 12.8 µM

Question: And the TGI [24]?
Answer: 17.5 µM

Question: And the TGI [25]?
Answer: 12.2 µM

Question: And the TGI [26]?
Answer: 11.9 µM

Question: And the TGI [27]?
Answer: > 22.8 µM

Question: And the TGI [28]?
Answer: 25.9 µM

Question: And the TGI [29]?
Answer: 17.7 µM

Question: And the TGI [30]?
Answer: 14.5 µM

Question: And the TGI [31]?
Answer: 9.76 µM

Question: What about the TGI [32] of the same compound?
Answer: 9.74 µM

Question: And the TGI [33]?
Answer: 12.5 µM

Question: What about the TGI [34] of the same compound?
Answer: 15.4 µM

Question: And the TGI [35]?
Answer: 18.9 µM

Question: And the TGI [36]?
Answer: 5.92 µM

Question: What about the TGI [37] of the same compound?
Answer: 16.1 µM

Question: What about the TGI [38] of the same compound?
Answer: 6.18 µM

Question: What about the TGI [39] of the same compound?
Answer: 16.8 µM

Question: And the TGI [40]?
Answer: 9.18 µM

Question: What about the TGI [41] of the same compound?
Answer: 17.3 µM

Question: And the TGI [42]?
Answer: 22.6 µM

Question: What about the TGI [43] of the same compound?
Answer: 28.6 µM

Question: And the TGI [58]?
Answer: 25.6 µM

Question: What about the TGI [44] of the same compound?
Answer: 22.9 µM

Question: What about the TGI [45] of the same compound?
Answer: 31.6 µM

Question: And the TGI [46]?
Answer: 13.2 µM

Question: What about the TGI [47] of the same compound?
Answer: 20.5 µM

Question: And the TGI [48]?
Answer: 20 µM

Question: What about the TGI [59] of the same compound?
Answer: 8.44 µM

Question: What about the TGI [50] of the same compound?
Answer: 26.3 µM

Question: What about the TGI [51] of the same compound?
Answer: 32.7 µM

Question: And the TGI [52]?
Answer: 9.64 µM

Question: And the TGI [53]?
Answer: 25.4 µM

Question: And the TGI [54]?
Answer: 14.1 µM

Question: And the TGI [55]?
Answer: 21 µM
